This note sets out measurements from patent US20230257413A1, “ARTIFICIAL NUCLEIC ACID, METHOD FOR PRODUCING SAME, AND USE THEREOF” (RIKEN GENESIS CO., LTD., priority 2020, published 2023).

For data set [1], the system named is single-stranded DNA (5′-d(agcaaaaaacgc)-3′; SEQ ID NO: 6) (a sense strand). Nature of the data set: Measurement of melting temperatures (Tm) of oligonucleotides, double strand forming capability with single-stranded DNA. It is filed as binding. Conditions: antisense 5′-d(gcgnnnnnngct)-3′ (SEQ ID NO: 4); 100 mM NaCl, 10 mM sodium phosphate buffer pH 7.2, 4 μM each strand.

Data set [2] has as its system single-stranded RNA (5′-r(agcaaaaaacgc)-3′; SEQ ID NO: 7) (a sense strand). Nature of the data set: Measurement of melting temperatures (Tm) of oligonucleotides, double strand forming capability with single-stranded RNA. The format is binding. Conditions: antisense 5′-d(gcgnnnnnngct)-3′ (SEQ ID NO: 4); 100 mM NaCl, 10 mM sodium phosphate buffer pH 7.2, 4 μM each strand.

For the substance “DNA-T: 5′-d(gcgnnnnnngct)-3′ (SEQ ID NO: 4), n = formula (7) unit, Base thymin-1-yl, R^a H (natural DNA T) (DNA AGCAAAAAACGC; n natural T, chemistry not fully specified; the letters are possibly those of the target site)”, the “Tm value (target: ssDNA)” value in data set [1] is 52 °C. The “Tm value (target: ssRNA)” value in data set [2] came to 48 °C.
The matching figures for “(R)EDM-T: SEQ ID NO: 4, n = formula (6) unit: thymin-1-yl, n 1, R^3 3-(N,N-dimethylamino)propyl, R^4 (R)-ethyl, R^5 H (DNA AGCAAAAAACG; n (R)EDM-T modified units, chemistry not fully specified; the letters are possibly those of the target site)”: 77 °C and 89 °C.
